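Protocol summary: plate cells (96-well), add compound at 5 concentrations, incubate 48 h, interpolate endpoints linearly. Abbreviation: GI50, concentration required for 50% inhibition of growth.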 Activity calls are given as the source filed them. Rule as the data show it: active = GI50 up to about 1.1 µM and inactive = higher.

The source of these data is ChEMBL document CHEMBL1201862, “PubChem BioAssay data set” (2004).

Common to all, as to test: growth of human tumour cells (NCI), 48 h
In test [1] the test system is CCRF-CEM.
For test [2], the system named is SN12C.
Test [3] concerns COLO 205.
Test [4] concerns MOLT-4.
Test [5] concerns MDA-MB-231.
In test [6] the test system is TK-10.
Test [7] has as its system CAKI-1.
Test [8] concerns M14.
The subject of test [9] is RXF 393.
Test [10] has as its system NCI-H23.
In test [11] the test system is SW-620.
Test [12] has as its system HCT-116.
The subject of test [13] is ACHN.
In test [14] the test system is UO-31.
Test [15] concerns SR.
The test system of test [16] is 786-0.
Test [17] has as its system OVCAR-8.
Test [18] has as its system MDA-MB-435.
Test [19] concerns NCI-H522.
The subject of test [20] is LOX IMVI.

As to `S=C1NCCN1C(=S)NC1CCCCC1`, the GI50 in test [1] is 45.2 µM (inactive); in test [2], 38.2 µM (inactive); in [3], 27 µM (inactive); in test [4], 21.1 µM (inactive); in test [5], 44.8 µM (inactive); in [6] it was 27.6 µM (inactive). The GI50 in test [7] is 25.4 µM (inactive); in test [8], 22.1 µM (inactive); in [9], 4.28 µM (inactive); in test [10], 21.8 µM (inactive); in test [11], 46 µM (inactive); in [12], 30.3 µM (inactive). The GI50 in test [13] was 32.7 µM (inactive); in test [14], 26.7 µM (inactive); in test [15], 35.8 µM (inactive); in [16] it was 37.9 µM (inactive); in [17], 47.6 µM (inactive); in [18], 26.2 µM (inactive). Besides, the GI50 is 22.1 µM (inactive) in [19] and 35.8 µM (inactive) in test [20].
On to `CN(Cc1cccc2ccsc12)/N=C\c1ccc(Cl)cc1`, for which the GI50 was 31.3 µM (inactive) in [1]; > 100 µM (inactive) in [2]; 74.8 µM (inactive) in test [3]; 25.5 µM (inactive) in test [4]; > 100 µM (inactive) in [5]; > 100 µM (inactive) in [6]. The GI50 in test [7] was > 100 µM (inactive); in test [8] it was 79.4 µM (inactive); in test [9], > 100 µM (inactive); in [10], 28.4 µM (inactive); in [11], 80.2 µM (inactive); in [12] it was 28.6 µM (inactive). In addition, the GI50 in test [13] was > 100 µM (inactive); in test [14] it was 78.3 µM (inactive); in test [15], 18.4 µM (inactive); in test [16] it was > 100 µM (inactive); in test [17], > 100 µM (inactive); in [18] it was 49.3 µM (inactive). In addition, the GI50 is 51.3 µM (inactive) in test [19] and > 100 µM (inactive) in test [20].
As for `CN(C)C1C(O)=C(C(=O)NCN2CCCC2)C(=O)C2(O)C(O)=C3C(=O)c4c(O)cccc4C(C)(O)C3CC12` (stereo not given), the GI50 in test [1] is 59 µM (inactive); in test [2], > 100 µM (inactive); in [3], > 100 µM (inactive); in test [4], 40 µM (inactive); in [5], 29.2 µM (inactive); in test [6], 60.7 µM (inactive). The GI50 in test [7] was > 100 µM (inactive); in test [8], 77.3 µM (inactive); in test [9] it was > 100 µM (inactive); in test [10], 63.5 µM (inactive); in test [11] it was > 100 µM (inactive); in [12], > 100 µM (inactive). Also, the GI50 in test [13] was > 100 µM (inactive); in [14] it was > 100 µM (inactive); in test [15], > 100 µM (inactive); in test [16] it was > 100 µM (inactive); in [17], > 100 µM (inactive); in test [18], 34.5 µM (inactive). Further, the GI50 in test [19] and in [20] was > 100 µM (inactive) each time.
Turning to `COc1ccc(C(=O)/C=C/c2ccc(OCC(=O)O)cc2)cc1`, the GI50 was 31.7 µM (inactive) in test [1]; 71.3 µM (inactive) in test [2]; 70.3 µM (inactive) in test [3]; 8.57 µM (inactive) in test [4]; 59.2 µM (inactive) in test [5]; > 100 µM (inactive) in test [6]. Further, the GI50 in test [7] is > 100 µM (inactive); in test [8] it was > 100 µM (inactive); in [9], > 100 µM (inactive); in [10] it was > 100 µM (inactive); in test [11] it was 41.5 µM (inactive); in test [12], 47.1 µM (inactive). Moreover, the GI50 is > 100 µM (inactive) in test [13]; > 100 µM (inactive) in [14]; 13 µM (inactive) in test [15]; 60.1 µM (inactive) in test [16]; 74.3 µM (inactive) in test [17]; 32.8 µM (inactive) in test [18]. Further, the GI50 was 36 µM (inactive) in test [19] and 33.6 µM (inactive) in test [20].
Regarding `CCN(CCCl)c1cc(CN(C)C)cc(NC(=O)c2cc(C(=O)Nc3cc(CN(C)C)cc(N(CC)CCCl)c3)n(C)n2)c1`, the GI50 in test [1] was < 0.01 µM (active); in [2] it was 0.3 µM (active); in test [3] it was 0.721 µM (active); in test [4] it was < 0.01 µM (active); in test [5], 1.53 µM (inactive); in [6], 2.69 µM (inactive). The GI50 in test [7] was 0.557 µM (active); in [8], 0.381 µM (active); in [9], 0.449 µM (active); in test [10] it was 0.284 µM (active); in [11] it was 0.0962 µM (active); in [12] it was 0.227 µM (active). Moreover, the GI50 in test [13] is 0.0828 µM (active); in test [14] it was 3.06 µM (inactive); in test [15], 0.0119 µM (active); in [16] it was < 0.01 µM (active); in test [17], 0.143 µM (active); in [18], 0.213 µM (active). The results for the GI50 in test [19] and in test [20] were 0.115 µM (active) and 0.0685 µM (active), respectively.
For the molecule `CCCC(=O)Nc1cc(/C=C/C(=O)N2C[C@@H]3C[C@]34C2=CC(=O)c2[nH]cc(C)c24)n(C)c1`, the GI50 is 0.0321 µM (active) in test [1]; 0.47 µM (active) in test [2]; 0.293 µM (active) in test [3]; 0.0257 µM (active) in test [4]; 0.38 µM (active) in [5]; 0.495 µM (active) in test [6]. The GI50 was 0.1 µM (active) in [7]; 0.297 µM (active) in test [8]; 0.0711 µM (active) in test [9]; 0.0927 µM (active) in [10]; 0.0706 µM (active) in [11]; 0.0841 µM (active) in test [12]. Further, the GI50 in test [13] is 0.0689 µM (active); in [14], 0.473 µM (active); in test [15], 0.0149 µM (active); in [16] it was 0.0757 µM (active); in test [17] it was 0.0533 µM (active); in [18], 0.285 µM (active). In addition, the GI50 in test [19] is 0.0432 µM (active); in test [20], 0.0733 µM (active).
Take `Nc1nc2cc3nc(N)c(N)nc3cc2nc1N`: the GI50 in test [1] is 64.3 µM (inactive); in test [2], > 100 µM (inactive); in test [3] it was > 100 µM (inactive); in [4] it was 92.9 µM (inactive); in [5] it was > 100 µM (inactive); in test [6], 80.5 µM (inactive). Besides, the GI50 in test [7] is > 100 µM (inactive); in [8] it was > 100 µM (inactive); in [9], > 100 µM (inactive); in [10], > 100 µM (inactive); in test [11] it was > 100 µM (inactive); in test [12] it was 84.3 µM (inactive). For the same molecule, the GI50 in test [13] is > 100 µM (inactive); in test [14], > 100 µM (inactive); in test [15], 71.8 µM (inactive); in test [16], > 100 µM (inactive); in test [17], > 100 µM (inactive); in [18], > 100 µM (inactive). Besides, the GI50 in [19] and in [20] was > 100 µM (inactive) throughout.
As for `Cc1cc(-c2nc3cc(O)ccc3s2)ccc1N`, the GI50 in test [1] is 27.7 µM (inactive); in test [2] it was 28.8 µM (inactive); in [3] it was 21 µM (inactive); in test [4], 96.2 µM (inactive); in [5], 30 µM (inactive); in test [6], 38.9 µM (inactive). Also, the GI50 is 34 µM (inactive) in test [7]; 20.9 µM (inactive) in [8]; 27.5 µM (inactive) in test [9]; 46.1 µM (inactive) in [10]; 38 µM (inactive) in test [11]; 22.8 µM (inactive) in test [12]. Moreover, the GI50 in [13] was 22.5 µM (inactive); in test [14], 18.7 µM (inactive); in test [15], 32 µM (inactive); in test [16], 37 µM (inactive); in test [17], 47.1 µM (inactive); in test [18], 33.3 µM (inactive). The GI50 was 31 µM (inactive) in [19] and 45 µM (inactive) in [20].
